Earlier results in paper PMC7894237 (Inflammation Research, 2021).
Like-named read-outs stand apart in the source and are kept apart here.

Tests used:
AAK1 [1] = conditions: compared with ruxolitinib and fedratinib
[2] = test system: COVID-19 particle entry in human lung host cells; conditions: via inhibiting AAK1 and binding to GAK
[3] = test system: patient with severe COVID-19; conditions: anakinra started day 10 after hospital admission
[4] = test system: patients with severe sepsis with hyper-inflammation; conditions: phase 3 randomized clinical trial
sHLH/MAS patients = conditions: five adult patients, IV infusions up to 2400 mg/day
[5] = not given; remark: listed apart in the source
patients with COVID-19 [6] = conditions: nine patients
COVID-19 patients = conditions: single 300 mg dose subcutaneously, ten patients
[7] = not given; remark: listed apart in the source
severe cases of COVID-19 [8] = test system: severe cases of COVID-19
patients with COVID-19 [9] = test system: patients with COVID-19
severe cases of COVID-19 [10] = conditions: compared with the control group
[11] = test system: SARS-CoV1 replication in Vero cells
[12] = test system: SARS-CoV1 replication in Vero cells; remark: listed apart in the source
[13] = test system: patients with SARS infection; conditions: human, in vivo
AAK1 [14] = test system: AAK1
[15] = test system: patients with rheumatoid arthritis
[16] = test system: patients with COVID-19 who developed ARDS
[17] = test system: patients with multicentric Castleman disease
[18] = not given; remark: listed apart in the source
patients with COVID-19 [19] = conditions: patient, died 13 days after hospitalization
influenza = conditions: pre-treatment, same dose of subtypes
malaria = conditions: deficient mice
[20] = of those who experienced a worsening

## rilonacept
Patients with CAPS
  major side effects: reactions at injection-site, upper respiratory tract infections, sinusitis, cough, hypoesthesia, nausea, diarrhea, stomach discomfort, and urinary tract infections
Patients with CAPS; week six, pre-treatment baseline value = 22 mg/L
  serum CRP level: 2 mg/L

## CCS(=O)(=O)N1CC(CC#N)(n2cc(-c3ncnc4[nH]ccc34)cn2)C1 [baricitinib]
AAK1 [1]
  affinity to AAK1: more affinity to AAK1
IL-6 and GM-CSF levels
  IL-6 and GM-CSF levels: can decrease
[2]
  COVID-19 particle entry: can reduce the COVID-19 particle entry

## anakinra: recombinant IL-1R antagonist; blocks the binding of both IL-1α and IL-1β to IL-1R
Chronic anakinra therapy
  side effects observed: reaction at the site of injection and infection
Specific IL-1β-targeting agents
  organ toxicities or gastrointestinal disturbances: no organ toxicities or gastrointestinal disturbances
[3]
  day on which patient was discharged from the ICU: 18 days
  day on which respiratory function improved: 13 days
[4]
  side effects: without markedly side effects
  therapeutic effect: beneficial
sHLH/MAS patients
  therapeutic effect: reduced cytokine storm and subsequent clinical improvement
[5]
  half-life: 4 to 6 h
[5]; subcutaneous route
  bioavailability: 95%
[5]; subcutaneous route, different chronic inflammatory conditions
  plasma concentrations: adequate and consistent plasma concentrations
Patients with COVID-19 [6]
  therapeutic effect: prevents mechanical ventilation and decreases serum inflammatory markers
  toxicity: no toxicity

## canakinumab: high affinity, monoclonal anti-IL-1β antibody
COVID-19 patients
  tolerability: well tolerated, with no recorded injection site reactions, infection, or side-effects

## tocilizumab: recombinant humanized anti-interleukin-6 receptor monoclonal antibody
[7]
  major side-effects: general infections, hepatotoxicity, hypertriglyceridemia, as well as diverticulitis
Severe cases of COVID-19 [8]; 10/19 patients
  patients whose lymphocyte number returned to normal values: 52.6%
Severe cases of COVID-19 [8]; 16/19 patients
  patients whose abnormal elevated C-reactive protein returned to normal values: 84.2%
Severe cases of COVID-19 [8]; 5 days after administration, 15/ 20 patients
  patients with lowered oxygen intake: 75%
Severe cases of COVID-19 [8]; all patients
  side effects: No obvious side effects
COVID-19 pneumonia; after tocilizumab therapy
  need for mechanical ventilation: did not require mechanical ventilation
COVID-19 pneumonia; single administration in combination with hydroxychloroquine
  treatment outcome: successfully treated
Patients with COVID-19 [9]
  patients in whom the high level of CRP was suppressed rapidly: 11/15
Patients with COVID-19 [9]; after tocilizumab therapy
  patients with decreased serum IL-6 levels: ten

## N#CC[C@H](C1CCCC1)n1cc(-c2ncnc3[nH]ccc23)cn1 [ruxolitinib]
Severe cases of COVID-19 [10]
  clinical improvement: faster clinical improvement

## IFN-α
[11]
  sensitivity of SARS-CoV1 to the interferon: only weakly sensitive
[12]
  effect on SARS-CoV1 replication: inhibited synergistically
[13]
  therapeutic effect: inconclusive

## C[C@@H]1CCN(C(=O)CC#N)C[C@@H]1N(C)c1ncnc2[nH]ccc12 [tofacitinib]
AAK1 [14]
  inhibition of AAK1: does not significantly inhibit
[15]
  CRP level and erythrocyte sedimentation rates: decreased CRP level and erythrocyte sedimentation rates (ESR)
  major side effects: increasing both low-density lipoprotein (LDL) and high-density lipoprotein (HDL) levels, and decreasing blood neutrophils

## C=C1CC[C@H](O)C/C1=C/C=C1\CCC[C@]2(C)[C@@H]([C@H](C)/C=C/[C@H](C)C(C)C)CC[C@@H]12 [vitamin D]
IL-1α, IL-1β, and TNF-α
  expression of pro-inflammatory markers: suppressing the expression of pro-inflammatory markers

## siltuximab: monoclonal antibody of IL-6
[16]; 21 patients, follow-up 8 days
  patients with improvement in their condition with a reduced need for ventilation: 33%
  patients with worsening of their condition who required intubation: 24%
[16]; 21 patients, intravenous 700-1200 mg, follow-up 8 days
  patients with serum CRP levels reduced to within the normal range: 16 patients
[16]; [20]
  patients who developed a cerebrovascular event: one
  patients who died: one
Castleman’s disease; Castleman’s disease
  maximum tolerated dose: 100 mg twice weekly
Castleman’s disease; day 8 of siltuximab treatment
  median decrease in hepcidin levels: 47%
Castleman’s disease; every 3 weeks
  dose at which maximum suppression of CRP level was observed: 12 mg/kg
[17]; 3/60 patients
  side effect: vomiting: 5%
[17]; 4/60 patients
  side effect: nausea: 7%
  side effect: neutropenia: 7%
[17]; 5/60 patients
  side effect: fatigue: 8%
[17]; 8/60 patients
  side effect: hypertension: 13%
[17]; 25/60 patients
  side effect: infection: 42%
[17]; 60 patients
  deaths: no deaths
[18]
  half-life: 391 ± 101 h

B1: sarilumab: human monoclonal antibody directed against the alpha subunit of the IL-6R (antibody, chains of the INN, looked up, V domains shown)
VH: EVQLVESGGGLVQPGRSLRLSCAASRFTFDDYAMHWVRQAPGKGLEWVSGISWNSGRIGYADSVKGRFTISRDNAENSLFLQMNGLRAEDTALYYCAKGRDSFDIWGQGTMVTVSS
VL: DIQMTQSPSSVSASVGDRVTITCRASQGISSWLAWYQQKPGKAPKLLIYGASSLESGVPSRFSGSGSGTDFTLTISSLQPEDFASYYCQQANSFPYTFGQGTKLEIK
Patients with COVID-19 [19]
  patients with no improvement in lung function who died: one

B2: IFN-α6: type I IFN subtype (protein, UniProt P05013 21-189, looked up)
Interferon alpha-6: SLDCDLPQTHSLGHRRTMMLLAQMRRISLFSCLKDRHDFRFPQEEFDGNQFQKAEAISVLHEVIQQTFNLFSTKDSSVAWDERLLDKLYTELYQQLNDLEACVMQEVWVGGTPLMNEDSILAVRKYFQRITLYLTEKKYSPCAWEVVRAEIMRSFSSSRNLQERLRRKE
influenza
  effect on viral load: more suppressive effects on the viral load than IFN-α1

B3: interferon-gamma: Type II IFN (protein, UniProt P01579 24-161, looked up)
Interferon gamma: QDPYVKEAENLKKYFNAGHSDVADNGTLFLGILKNWKEESDRKIMQSQIVSFYFKLFKNFKDDQSIQKSVETIKEDMNVKFFNSNKKKRDDFEKLTNYSVTDLNVQRKAIHELIQVMAELSPAAKTGKRKRSQMLFRG
[11]
  sensitivity of SARS-CoV1 to the interferon: only weakly sensitive

B4: IFN-α5: type I IFN subtype (protein, UniProt P01569 22-189, looked up)
Interferon alpha-5: LGCDLPQTHSLSNRRTLMIMAQMGRISPFSCLKDRHDFGFPQEEFDGNQFQKAQAISVLHEMIQQTFNLFSTKDSSATWDETLLDKFYTELYQQLNDLEACMMQEVGVEDTPLMNVDSILTVRKYFQRITLYLTEKKYSPCAWEVVRAEIMRSFSLSANLQERLRRKE
influenza
  effect on viral load: more suppressive effects on the viral load than IFN-α1

B5: recombinant soluble IL-6R: recombinant soluble IL-6R, mimic the trans-signaling of IL-6 (protein, UniProt P08887 20-365, looked up)
extracellular domain: LAPRRCPAQEVARGVLTSLPGDSVTLTCPGVEPEDNATVHWVLRKPAAGSHPSRWAGMGRRLLLRSVQLHDSGNYSCYRAGRPAGTVHLLVDVPPEEPQLSCFRKSPLSNVVCEWGPRSTPSLTTKAVLLVRKFQNSPAEDFQEPCQYSQESQKFSCQLAVPEGDSSFYIVSMCVASSVGSKFSKTQTFQGCGILQPDPPANITVTAVARNPRWLSVTWQDPHSWNSSFYRLRFELRYRAERSKTFTTWMVKDLQHHCVIHDAWSGLRHVVQLRAQEEFGQGEWSEWSPEAMGTPWTESRSPPAENEVSTPMQALTTNKDDDNILFRDSANATSLPVQDSSSVPLP
modifications: extracellular domain
malaria
  outcome of malaria: restores the lethal outcome of malaria
